Source: paper PMC3910101 (International journal of cancer. Journal international du …, 2012)

Molecular target: Hsp90
Experiment: SPR
Format: binding, Homo sapiens

- Kd: 4.99 µM
Structure (SMILES): CC(C)=CCCC1(C)C=Cc2c(c(C)cc3c2[nH]c2cc(O)ccc23)O1 (stereo not shown) [mahanine]
